Source: US5593965A, “Anti-tumor effects of GnRH-III” (Creighton University, priority 1994, dated 1997)
Entries after “also recorded” stand apart in the source; their conditions may differ.

How the values were obtained:
MCF-7 cell line = format: cell-based, human; conditions: dose range 1-50 μM
From the text: (§1) Two human breast cancer cell lines were used. They were: (1) the estrogen receptor positive MCF-7 cell line and (2) the estrogen receptor negative MDA-MB-231 cell line. Both cell lines contain GnRH receptors. These cell lines were used to illustrate the anticancer effects of GnRH-III. The cells were maintained in Dulbecco-modified Eagle-minimal essential medium (DMEM, GIBCO) containing 10% fetal calf serum (10% FCS). The clonogenic assay provides information on the cell damaging effects of a substance in a dose-dependent manner. Three hundred cells were transferred into 35 mm Petri dishes in 2.5 ml of medium. On the following day, the cultures were treated with 1, 5, 10, 20, 30 and 50 μM doses of GnRH-III. Colonies which developed from specific cells were stained with crystal violet and counted on days 8 to 12 after treatment. Colony numbers of untreated control cultures were counted for comparison.

MDA-MB-231 cell line = format: cell-based, human; conditions: dose range 1-50 μM
From the text: as §1

rat pituitary cells = assay: Superfused rat pituitary cell system (LH release); format: cell-based
Procedure: The GnRH activity of the peptides were assayed by using the superfused rat pituitary cell system as described by Vigh and Schally, Peptides, 5:241-247, Suppl. 1, (1984) and Csernus and Schally, Neuroendocrine Research Methods, Greenstein, B., ed., Harwood Academic Publishers, London, pp66-102 (1985). Mixed cell populations of four regularly cycling female rats, at random stages of the estrous cycle, were used in each chamber of a superfusion apparatus. The cells were perfused for 12 hours with Medium 199 (Sigma) at a flow rate of 20 ml/hour, prior to administration of the peptides. […] The peptide-containing solutions are prepared from the stock solution immediately before use. At the beginning of each experiment, cells were rechallenged with potassium to check the secretability of Luteinizing Hormone, independent of the participation of specific hormone recptors. Fractions, 1 ml per 3 minutes, were collected and the concentration of Luteinzing Hormone was determined by radioimmunoassay. NIAMD radioimmunoassay kits were used for the Luteinizing Hormone and Follicle Stimulating Hormone assays. The superfusion data was analyzed by the computer program of Csernus and Schally (1985).

ovulation in rats [1] = conditions: cited from earlier work
ovulation in rats [2] = assay: In vivo assay of inhibition of ovulation (chemical castration); set-up: species or system rat
Procedure: Adult female rates(Wistar-R-Amsterdam), 200-250 grams, housed under controlled lighting (light period 05:00 to 19:00) with free access to pelleted food and tap water were used herein. For the in vivo assay of inhibition of ovulation, aliquots of peptide solutions were injected subcutaneously into female rats at noon on the day of proestrous for single-dose tests and every day at noon for long term tests. Only rats which had previously shown three consecutive regular 4-day cycles, as indicated by vaginal smears test, were used herein. Animals were ovariectomized on the day of the first diestrous after the injection. Oviducts were prepared under stereo-microscope and tested for ova as is well known in the art.

[3] = tested on: human breast cancer cell lines; format: cell-based
From the text: as §1, with “comparison. The antiproliferation assay used herein measures the inhibition of cell proliferation due to drug exposure. Loose subconfluent cultures (6×10^5 -1×10^6 cells) in 100 mm Petri dishes were initiated and treated with 1, 5, 10, 20, 30 and 50 μM doses of GnRH-III on every other day for various periods of time. On day 6, the cell numbers of both control and treated cultures were counted in a Neubauer-type hemocytometer.” for “comparison.”

Q: What does the source list for “[B-Asp(α-diethylamide^6 ],Gln^8)GnRH [TH-332, reference compound]”?
A: colony formation (MCF-7 cell line): did not inhibit colony formation; colony formation (MDA-MB-231 cell line): did not inhibit colony formation

Q: With “human GnRH: hypothalamic peptide hormone stimulating release of Luteinizing Hormone and Follicle Stimulating Hormone (QHWSYGLRPG; Gonadoliberin-1; UniProt P01148 24-33, looked up) [reference compound]” as the compound, how does the “induction of LH release” value (rat pituitary cells; doses 10^-9 -10^-7 M) read?
A: The value was “did not induce Luteinizing Hormone (LH)-release”.

Q: And the “inhibition of LH release induced by native GnRH” value (rat pituitary cells; doses 10^-9 -10^-7 M)?
A: Its value is “neither did it inhibit the LH-release induced by native GnRH”.

Q: What about the “effective doses on ovulation” value (ovulation in rats [1]) of the same compound?
A: Its value is 10^-9 to 10^-7 M.

Q: For `NCCCC[C@H](NC(=O)[C@H](Cc1c[nH]c2ccccc12)NC(=O)[C@H](CC(=O)O)NC(=O)[C@H](Cc1c[nH]cn1)NC(=O)[C@H](CO)NC(=O)[C@H](Cc1c[nH]c2ccccc12)NC(=O)[C@H](Cc1c[nH]cn1)NC(=O)[C@@H]1CCC(=O)N1)C(=O)N1CCC[C@H]1C(=O)NCC(N)=O` [GnRH-III], which colony formation (MCF-7 cell line) is on record?
A: The colony formation was “inhibited colony formation”.

Q: What about the colony formation (MDA-MB-231 cell line) of the same compound?
A: Its colony formation is “inhibited colony formation”.

Q: And the influence on ovulation (ovulation in rats [2]; female rats, subcutaneous, doses of 10^-9 to 10^-7 M)?
A: Its influence on ovulation is “no influence on ovulation”.

Q: And the function of gonads (ovulation in rats [2]; rats)?
A: The function of gonads was “did not influence the function of gonads; also recorded: does not influence gonadal function”.

Q: What about the histology of ovary (ovulation in rats [2]; rats, repeated injections) of the same compound?
A: Its histology of ovary is “did not change histology of ovary; also recorded: did not change the histological character of ovary”.

Q: And the “LH release at high concentration” value (rat pituitary cells; 10^-6 M)?
A: Its value is “did cause LH release”.

Q: What about the “agonist/antagonist character in mammalian pituitary gland” value (rat pituitary cells; doses of 10^-9 to 10^-7 M) of the same compound?
A: Its value is “neither agonist, nor antagonist”.

Q: And the “decrease in cloning efficiency” value ([3]; at 30 μM)?
A: The value was 65-80%.

Q: And the “anticancer activity compared with other GnRH analogs” value ([3]; in vitro, human breast cancer cell lines)?
A: Its value is “surpass that of the well known agonists Buserelin, Decapeptyl and Ovurelin, and to approximate that of the antagonists SB-30 and MI-1544”.
